Data as given in paper PMC7180948, “New Insights into 4-Anilinoquinazolines as Inhibitors of Cardiac Troponin I–Interacting Kinase (TNNi3K)” (Molecules, 2020).

How the values were obtained:
Experiment in all cases: biochemical
Parameters in all cases: KINOMEscan competition binding panel (Eurofins DiscoverX), single concentration, percent inhibition
Conditions in all cases: read-out: 15 at 1 µM % inhibition
[1] = biological target: MERTK (Homo sapiens, UniProt Q12866)
How it was run: (§1)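 Kinome-wide profiling (KINOMEscan, >400 human kinases) was run at 1 µM compound.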

[2] = biological target: IRAK1 (Homo sapiens, UniProt P51617)
How it was run: as §1

[3] = biological target: CDK2 (Homo sapiens, UniProt P24941)
How it was run: as §1

[4] = biological target: PRKG1 (Homo sapiens, UniProt Q13976)
How it was run: as §1

[5] = biological target: DDR2 (Homo sapiens, UniProt Q16832)
How it was run: as §1

[6] = biological target: CDKL2 (Homo sapiens, UniProt Q92772)
How it was run: as §1

[7] = biological target: PLK2 (Homo sapiens, UniProt Q9NYY3)
How it was run: as §1

[8] = biological target: T1, RSK3(Kin.Dom.1-N-terminal) (Homo sapiens, UniProt Q15349)
T1 construct: gene RPS6KA2; Kin.Dom.1-N-terminal
How it was run: as §1

[9] = biological target: FGR (Homo sapiens, UniProt P09769)
How it was run: as §1

[10] = biological target: T2, ERK4 (Homo sapiens, UniProt P31152)
T2 construct: gene MAPK4
How it was run: as §1

[11] = biological target: T3, RSK3(Kin.Dom.2-C-terminal) (Homo sapiens, UniProt Q15349)
T3 construct: gene RPS6KA2; Kin.Dom.2-C-terminal
How it was run: as §1

[12] = biological target: MAK (Homo sapiens, UniProt P20794)
How it was run: as §1

[13] = biological target: DMPK (Homo sapiens, UniProt Q09013)
How it was run: as §1

[14] = biological target: PHKG2 (Homo sapiens, UniProt P15735)
How it was run: as §1

[15] = biological target: T4, JAK1(JH1domain-catalytic) (Homo sapiens, UniProt P23458)
T4 construct: JH1domain-catalytic
How it was run: as §1

[16] = biological target: ALK(C1156Y) (Homo sapiens, UniProt Q9UM73, C1156Y)
How it was run: as §1

[17] = biological target: T5, PIP5K2C (Homo sapiens, UniProt Q8TBX8)
T5 construct: gene PIP4K2C
How it was run: as §1

[18] = biological target: PAK1 (Homo sapiens, UniProt Q13153)
How it was run: as §1

[19] = biological target: T6, SNARK (Homo sapiens, UniProt Q9H093)
T6 construct: gene NUAK2
How it was run: as §1

[20] = biological target: PIK3CA(H1047Y) (Homo sapiens, UniProt P42336, H1047Y)
How it was run: as §1

[21] = biological target: T7, RPS6KA5(Kin.Dom.2-C-terminal) (Homo sapiens, UniProt O75582)
T7 construct: Kin.Dom.2-C-terminal
How it was run: as §1

[22] = biological target: T8, MST1 (Homo sapiens, UniProt Q13043)
T8 construct: gene STK4
How it was run: as §1

[23] = biological target: T9, p38-gamma (Homo sapiens, UniProt P53778)
T9 construct: gene MAPK12
How it was run: as §1

T7 sequence (O75582 whole entry): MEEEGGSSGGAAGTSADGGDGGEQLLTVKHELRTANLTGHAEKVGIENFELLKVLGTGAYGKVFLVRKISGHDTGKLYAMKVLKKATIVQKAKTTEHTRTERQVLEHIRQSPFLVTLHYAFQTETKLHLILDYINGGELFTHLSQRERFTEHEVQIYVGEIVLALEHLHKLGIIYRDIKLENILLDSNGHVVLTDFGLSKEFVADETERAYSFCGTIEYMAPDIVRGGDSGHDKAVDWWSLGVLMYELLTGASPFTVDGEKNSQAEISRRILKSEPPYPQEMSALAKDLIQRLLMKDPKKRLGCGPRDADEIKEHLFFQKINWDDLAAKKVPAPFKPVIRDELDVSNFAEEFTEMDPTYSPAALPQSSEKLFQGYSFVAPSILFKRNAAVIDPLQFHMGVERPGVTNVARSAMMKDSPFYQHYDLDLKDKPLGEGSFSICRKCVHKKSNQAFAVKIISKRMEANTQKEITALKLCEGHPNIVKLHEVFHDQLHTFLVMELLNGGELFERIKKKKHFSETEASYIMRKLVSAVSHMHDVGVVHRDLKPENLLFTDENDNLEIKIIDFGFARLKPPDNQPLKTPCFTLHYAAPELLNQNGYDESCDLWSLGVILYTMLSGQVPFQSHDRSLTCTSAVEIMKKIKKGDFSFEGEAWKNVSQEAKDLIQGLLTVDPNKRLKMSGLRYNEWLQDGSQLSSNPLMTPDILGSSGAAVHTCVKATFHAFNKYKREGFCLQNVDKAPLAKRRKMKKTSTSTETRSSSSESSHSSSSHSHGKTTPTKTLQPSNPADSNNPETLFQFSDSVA
T3 sequence (Q15349 whole entry): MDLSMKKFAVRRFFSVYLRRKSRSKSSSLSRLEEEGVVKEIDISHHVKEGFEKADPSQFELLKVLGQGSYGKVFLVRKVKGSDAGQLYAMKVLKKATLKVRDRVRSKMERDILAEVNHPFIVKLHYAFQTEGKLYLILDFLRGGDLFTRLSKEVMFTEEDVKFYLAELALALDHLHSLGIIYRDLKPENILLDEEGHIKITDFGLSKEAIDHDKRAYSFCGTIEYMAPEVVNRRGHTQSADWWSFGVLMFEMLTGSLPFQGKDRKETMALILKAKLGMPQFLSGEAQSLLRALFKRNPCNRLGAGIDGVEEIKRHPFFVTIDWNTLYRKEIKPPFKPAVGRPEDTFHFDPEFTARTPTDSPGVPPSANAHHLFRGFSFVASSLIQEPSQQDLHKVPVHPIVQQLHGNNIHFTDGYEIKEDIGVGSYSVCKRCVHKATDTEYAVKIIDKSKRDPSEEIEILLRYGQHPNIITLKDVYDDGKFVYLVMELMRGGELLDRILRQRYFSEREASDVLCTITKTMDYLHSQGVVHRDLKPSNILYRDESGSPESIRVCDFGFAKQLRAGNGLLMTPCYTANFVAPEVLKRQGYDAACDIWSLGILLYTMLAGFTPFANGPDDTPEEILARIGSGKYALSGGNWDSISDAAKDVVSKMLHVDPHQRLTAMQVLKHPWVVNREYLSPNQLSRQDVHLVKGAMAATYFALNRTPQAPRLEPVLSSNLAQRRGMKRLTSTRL
T1 sequence (Q15349 whole entry): as above
DMPK, sequence (Q09013 whole entry): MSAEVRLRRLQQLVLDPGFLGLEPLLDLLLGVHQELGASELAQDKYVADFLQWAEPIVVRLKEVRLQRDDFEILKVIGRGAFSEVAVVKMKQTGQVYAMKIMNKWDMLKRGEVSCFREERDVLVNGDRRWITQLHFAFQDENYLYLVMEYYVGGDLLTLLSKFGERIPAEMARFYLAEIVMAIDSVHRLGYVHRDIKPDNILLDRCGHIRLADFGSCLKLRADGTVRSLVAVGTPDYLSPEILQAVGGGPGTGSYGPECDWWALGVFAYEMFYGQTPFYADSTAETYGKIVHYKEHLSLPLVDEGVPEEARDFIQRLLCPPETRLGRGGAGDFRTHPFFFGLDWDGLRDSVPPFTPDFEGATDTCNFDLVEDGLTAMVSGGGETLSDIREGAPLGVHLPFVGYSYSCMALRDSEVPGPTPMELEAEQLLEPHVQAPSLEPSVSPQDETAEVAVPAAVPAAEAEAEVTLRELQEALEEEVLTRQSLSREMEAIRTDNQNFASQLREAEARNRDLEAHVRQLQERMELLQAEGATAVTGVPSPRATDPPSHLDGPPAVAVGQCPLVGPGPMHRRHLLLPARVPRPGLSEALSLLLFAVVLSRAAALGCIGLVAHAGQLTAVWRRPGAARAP
CDKL2, sequence (Q92772 whole entry): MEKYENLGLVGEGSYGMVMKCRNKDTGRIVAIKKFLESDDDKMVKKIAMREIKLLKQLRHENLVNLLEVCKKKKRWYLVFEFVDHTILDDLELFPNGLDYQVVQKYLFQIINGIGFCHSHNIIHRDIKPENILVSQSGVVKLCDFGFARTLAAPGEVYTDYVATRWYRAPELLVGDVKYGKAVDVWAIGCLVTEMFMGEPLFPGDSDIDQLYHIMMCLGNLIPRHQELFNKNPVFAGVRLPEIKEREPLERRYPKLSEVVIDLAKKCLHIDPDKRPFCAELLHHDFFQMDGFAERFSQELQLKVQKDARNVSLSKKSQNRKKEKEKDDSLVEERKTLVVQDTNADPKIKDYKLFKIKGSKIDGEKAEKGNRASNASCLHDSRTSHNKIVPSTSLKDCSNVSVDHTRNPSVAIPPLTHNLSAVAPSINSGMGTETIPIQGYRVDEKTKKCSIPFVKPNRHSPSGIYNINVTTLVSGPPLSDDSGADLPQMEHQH
T5 sequence (Q8TBX8 whole entry): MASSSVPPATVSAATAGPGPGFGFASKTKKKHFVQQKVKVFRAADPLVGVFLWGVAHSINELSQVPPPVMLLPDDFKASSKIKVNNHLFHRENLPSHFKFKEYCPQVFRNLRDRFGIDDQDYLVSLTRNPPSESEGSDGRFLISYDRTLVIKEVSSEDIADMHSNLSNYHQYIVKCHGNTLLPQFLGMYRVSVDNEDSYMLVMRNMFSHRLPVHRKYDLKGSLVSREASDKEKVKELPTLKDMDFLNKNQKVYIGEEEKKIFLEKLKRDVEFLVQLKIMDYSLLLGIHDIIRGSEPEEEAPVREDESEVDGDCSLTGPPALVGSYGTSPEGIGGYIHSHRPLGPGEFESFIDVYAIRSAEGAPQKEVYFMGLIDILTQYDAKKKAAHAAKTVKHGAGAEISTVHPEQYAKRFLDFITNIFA
PHKG2, sequence (P15735 whole entry): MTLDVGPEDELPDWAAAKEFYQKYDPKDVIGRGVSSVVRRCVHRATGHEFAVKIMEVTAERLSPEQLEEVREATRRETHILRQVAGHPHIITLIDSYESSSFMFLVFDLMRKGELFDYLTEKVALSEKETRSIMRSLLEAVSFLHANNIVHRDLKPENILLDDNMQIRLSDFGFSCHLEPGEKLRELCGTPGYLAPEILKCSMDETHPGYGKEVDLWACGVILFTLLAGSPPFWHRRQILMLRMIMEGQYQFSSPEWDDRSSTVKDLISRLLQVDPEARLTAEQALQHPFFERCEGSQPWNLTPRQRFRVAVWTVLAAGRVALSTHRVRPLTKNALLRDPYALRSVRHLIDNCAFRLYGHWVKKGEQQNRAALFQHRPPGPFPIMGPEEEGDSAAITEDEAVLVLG
T4 sequence (P23458 whole entry): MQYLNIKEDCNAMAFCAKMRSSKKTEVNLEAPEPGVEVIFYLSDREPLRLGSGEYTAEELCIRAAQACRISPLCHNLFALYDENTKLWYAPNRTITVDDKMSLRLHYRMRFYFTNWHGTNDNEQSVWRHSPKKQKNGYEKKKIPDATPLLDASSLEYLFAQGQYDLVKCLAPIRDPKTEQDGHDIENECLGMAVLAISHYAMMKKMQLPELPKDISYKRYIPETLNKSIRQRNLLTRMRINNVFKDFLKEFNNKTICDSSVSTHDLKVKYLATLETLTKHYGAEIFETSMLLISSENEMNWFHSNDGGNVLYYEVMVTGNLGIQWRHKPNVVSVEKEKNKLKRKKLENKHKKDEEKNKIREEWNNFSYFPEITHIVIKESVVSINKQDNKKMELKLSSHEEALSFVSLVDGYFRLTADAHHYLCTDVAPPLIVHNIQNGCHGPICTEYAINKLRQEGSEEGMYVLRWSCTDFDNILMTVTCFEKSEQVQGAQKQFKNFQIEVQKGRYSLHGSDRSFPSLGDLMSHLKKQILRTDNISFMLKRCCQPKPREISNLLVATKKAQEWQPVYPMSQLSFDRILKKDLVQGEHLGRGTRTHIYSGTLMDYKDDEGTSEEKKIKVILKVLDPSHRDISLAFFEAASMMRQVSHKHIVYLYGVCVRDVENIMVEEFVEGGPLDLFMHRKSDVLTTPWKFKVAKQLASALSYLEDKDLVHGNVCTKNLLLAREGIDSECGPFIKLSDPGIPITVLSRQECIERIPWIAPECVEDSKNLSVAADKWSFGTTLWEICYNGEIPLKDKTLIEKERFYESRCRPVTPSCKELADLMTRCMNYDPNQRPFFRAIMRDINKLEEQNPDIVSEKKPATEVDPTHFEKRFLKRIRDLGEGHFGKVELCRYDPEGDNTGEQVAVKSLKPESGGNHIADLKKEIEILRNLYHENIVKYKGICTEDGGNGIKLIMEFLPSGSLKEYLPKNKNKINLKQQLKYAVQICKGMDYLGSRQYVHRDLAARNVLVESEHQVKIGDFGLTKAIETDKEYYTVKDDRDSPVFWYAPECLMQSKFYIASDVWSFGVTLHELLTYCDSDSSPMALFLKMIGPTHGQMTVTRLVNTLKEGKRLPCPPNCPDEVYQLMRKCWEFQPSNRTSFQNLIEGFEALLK
T9 sequence (P53778 whole entry): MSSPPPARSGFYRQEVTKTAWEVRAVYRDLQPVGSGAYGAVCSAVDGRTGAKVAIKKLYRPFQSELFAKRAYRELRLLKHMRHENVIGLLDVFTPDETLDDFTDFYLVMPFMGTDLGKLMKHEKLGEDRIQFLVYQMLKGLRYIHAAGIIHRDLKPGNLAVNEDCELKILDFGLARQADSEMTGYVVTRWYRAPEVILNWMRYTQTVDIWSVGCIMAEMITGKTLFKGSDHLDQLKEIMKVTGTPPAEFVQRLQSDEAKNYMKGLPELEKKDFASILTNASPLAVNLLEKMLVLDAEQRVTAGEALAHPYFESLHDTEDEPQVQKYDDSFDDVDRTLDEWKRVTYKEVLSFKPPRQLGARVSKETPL

CNS(=O)(=O)c1ccc(N(C)C)c(Nc2nc(C)nc3cc(OC)c(OC)cc23)c1 [compound 15, 3-((6,7-dimethoxy-2-methylquinazolin-4-yl)amino)-4-(dimethylamino)-N-methylbenzenesulfonamide]
inhibition at 1 µM [1]: 0% | inhibition at 1 µM [2]: 11% | inhibition at 1 µM [3]: 0% | inhibition at 1 µM [4]: 0% | inhibition at 1 µM [5]: 38% | inhibition at 1 µM [6]: 4% | inhibition at 1 µM [7]: 23% | inhibition at 1 µM [8]: 11% | inhibition at 1 µM [9]: 0% | inhibition at 1 µM [10]: 0% | inhibition at 1 µM [11]: 0% | inhibition at 1 µM [12]: 8% | inhibition at 1 µM [13]: 3% | inhibition at 1 µM [14]: 2% | inhibition at 1 µM [15]: 0% | inhibition at 1 µM [16]: 4% | inhibition at 1 µM [17]: 18% | inhibition at 1 µM [18]: 1% | inhibition at 1 µM [19]: 18% | inhibition at 1 µM [20]: 21% | inhibition at 1 µM [21]: 8% | inhibition at 1 µM [22]: 5% | inhibition at 1 µM [23]: 17%
